Assay results taken from ChEMBL document CHEMBL1201862, “PubChem BioAssay data set” (2004).
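A five-concentration, 48-hour dose response in 96-well plates underlies each endpoint, interpolated linearly between surrounding concentrations. GI50 = concentration required for 50% inhibition of growth.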 Calls of active or inactive are those of the source. Rule as the data show it: active = GI50 up to about 1.1 µM and inactive = higher.

Assays:
Assay in all cases: NCI-60 cell line screen, 48 h
HCT-116 = system: HCT-116
UACC-62 = system: UACC-62
HCC 2998 = system: HCC 2998
EKVX = system: EKVX
K562 = system: K562
NCI-H23 = system: NCI-H23
RXF 393 = system: RXF 393
LOX IMVI = system: LOX IMVI
NCI-H522 = system: NCI-H522
SW-620 = system: SW-620
U-251 = system: U-251
RPMI-8226 = system: RPMI-8226
SK-MEL-2 = system: SK-MEL-2
Malme-3M = system: Malme-3M
SNB-75 = system: SNB-75
SR = system: SR
A549 = system: A549
TK-10 = system: TK-10
OVCAR-3 = system: OVCAR-3
CAKI-1 = system: CAKI-1

Measured: GI50

COc1ccc(-c2c3c(nc4nc(SC)nc(SC)c24)CCCC3)cc1OC
inactive: HCT-116 44.4 µM | UACC-62 67.6 µM | HCC 2998 > 100 µM | EKVX 70 µM | K562 28.2 µM | NCI-H23 > 100 µM | RXF 393 25.9 µM | LOX IMVI 46.6 µM | NCI-H522 31.6 µM | SW-620 67.5 µM | U-251 70.3 µM | RPMI-8226 45.8 µM | SK-MEL-2 25.8 µM | Malme-3M 42.5 µM | SNB-75 28.2 µM | SR 8.07 µM | A549 > 100 µM | TK-10 38.5 µM | OVCAR-3 65.5 µM | CAKI-1 67.9 µM

O=c1[nH]c(=O)n(C2CC(O)C(CO)O2)cc1C#Cc1cc(C(F)(F)F)cc(C(F)(F)F)c1 (stereo not drawn)
inactive: HCT-116 > 22.8 µM | UACC-62 > 25.6 µM | HCC 2998 > 32 µM | EKVX 40.3 µM | K562 > 100 µM | NCI-H23 24.4 µM | RXF 393 8.87 µM | LOX IMVI > 25.5 µM | NCI-H522 25.1 µM | SW-620 > 30.2 µM | U-251 18 µM | RPMI-8226 > 29.6 µM | SK-MEL-2 > 36.9 µM | Malme-3M 34.8 µM | SNB-75 21.1 µM | SR > 100 µM | A549 > 24.7 µM | TK-10 > 100 µM | OVCAR-3 > 52.1 µM | CAKI-1 > 100 µM

CO[C@]12S[C@@H]3CCCC[C@@]31C(C)(C)C(=O)N2c1ccccc1
inactive: HCT-116 33.2 µM | UACC-62 49.8 µM | HCC 2998 51.2 µM | EKVX 55.7 µM | K562 29.7 µM | NCI-H23 28.8 µM | RXF 393 49.5 µM | LOX IMVI 32.6 µM | NCI-H522 27.6 µM | SW-620 30.4 µM | U-251 26.6 µM | RPMI-8226 24.7 µM | SK-MEL-2 26.8 µM | Malme-3M > 100 µM | SNB-75 51.5 µM | SR 28.5 µM | A549 67.3 µM | TK-10 55.5 µM | OVCAR-3 15.2 µM | CAKI-1 48.5 µM

COc1ccc(C[C@H](N)C(=O)N2C[C@H](CO)C[C@H](n3cnc4c(N(C)C)ncnc43)C2)cc1
inactive: HCT-116 > 100 µM | UACC-62 > 100 µM | HCC 2998 > 100 µM | EKVX > 100 µM | K562 > 100 µM | NCI-H23 > 100 µM | RXF 393 > 100 µM | LOX IMVI > 100 µM | NCI-H522 > 100 µM | SW-620 > 100 µM | U-251 > 100 µM | RPMI-8226 > 100 µM | SK-MEL-2 > 100 µM | Malme-3M > 100 µM | SR > 100 µM | A549 > 100 µM | TK-10 > 100 µM | OVCAR-3 > 100 µM | CAKI-1 > 100 µM

CCCN(CCC)CCc1ccc(OC2=CCN(C)CC2)cc1
inactive: HCT-116 39.8 µM | UACC-62 38 µM | HCC 2998 > 100 µM | EKVX > 100 µM | K562 42.6 µM | NCI-H23 > 100 µM | RXF 393 > 100 µM | LOX IMVI 23 µM | NCI-H522 21.1 µM | SW-620 > 100 µM | U-251 > 100 µM | RPMI-8226 > 100 µM | SK-MEL-2 > 100 µM | Malme-3M 13.8 µM | SR 28.2 µM | A549 > 100 µM | TK-10 87.3 µM | OVCAR-3 79.3 µM | CAKI-1 > 100 µM
